Assay results published in ChEMBL document CHEMBL4828715, “Discovery, Structure-Activity Relationships, and In Vivo Evaluation of Novel Aryl Amides as Brain Penetrant Adaptor Protein 2-Associated Kinase 1 (AAK1) Inhibitors for the Treatment of Neuropathic Pain” (J Med Chem, 2021).
pIC50: −log10 of the molar value. Converted amounts (≈) assume the structure as drawn. The source made the active and inactive calls. The rule behind the calls is not given here.

What was measured:
[1] = Metabolic stability in rat liver microsomes assessed as parent compound remaining at 0.5 uM incubated for 10 mins in presence of NADPH by LC-MS/MS analysis; type: ADME, Microsome; conditions: read-out: Stability
[2] = target: Sodium-dependent serotonin transporter (Homo sapiens, UniProt P31645); assay: Inhibition of SERT (unknown origin)
[3] = Drug concentration in plasma of Sprague-Dawley rat model of chronic constriction injury-induced neuropathic pain at 30 mg/kg, sc; type: ADME, organism-based; conditions: in vivo
[4] = Unbound drug concentration in plasma of Sprague-Dawley rat model of chronic constriction injury-induced neuropathic pain at 3 mg/kg, sc; type: ADME, organism-based; conditions: in vivo
[5] = target: AP2-associated protein kinase 1 (Mus musculus) (UniProt Q3UHJ0); assay: In vivo inhibition of AAK1 in C57BL6 mouse assessed as suppression of mu2 phosphorylation in brain lysate at 30 mg/kg, sc measured after 30 mins by Western blot analysis relative to control; type: functional, organism-based
[6] = target: Phosphatidylinositol 4-phosphate 5-kinase type-1 alpha (Homo sapiens) (UniProt Q99755); assay: Inhibition of wild-type human full length PIP5K1A (M1 to H562 residues) expressed in bacterial expression system assessed as residual binding level at 1 uM by Kinomescan method relative to control
[7] = target: Serine/threonine-protein kinase haspin (Homo sapiens, UniProt Q8TF76); assay: Inhibition of wild-type human partial length HASPIN (I452 to K798 residues) expressed in mammalian expression system by Kinomescan method relative to control
[8] = Drug concentration in C57BL6 mouse brain at 10 ml/kg, sc measured after 2 hrs by LC-MS/MS analysis; type: ADME, organism-based; conditions: read-out: Ct
Rattus norvegicus = assay: Antinociceptive activity in Sprague-Dawley rat model of chronic constriction injury-induced neuropathic pain assessed as reduction in mechanical hyperalgesia 60 mg/kg, sc by Von Frey test relative to control; type: functional; design: scale not given: the % may be the effect or the level left
[9] = target: Sodium-dependent noradrenaline transporter (Homo sapiens, UniProt P23975); assay: Inhibition of NET (unknown origin)
[10] = Ratio of drug concentration in brain to plasma in C57BL6 mouse at 30 mg/kg, sc; type: ADME, organism-based; conditions: read-out: BPR
[11] = Drug concentration in C57BL6 mouse at 10 ml/kg, sc measured after 2 hrs by LC-MS/MS analysis; type: ADME, organism-based; conditions: plasma
[12] = Unbound brain-to-plasma concentration ratio in Sprague-Dawley rat model of chronic constriction injury-induced neuropathic pain at 60 mg/kg, sc measured after 240 mins; type: ADME, organism-based; conditions: read-out: K(p,uu,brain)
[13] = target: AP2-associated protein kinase 1 (Mus musculus) (UniProt Q3UHJ0); assay: In vivo inhibition of AAK1 in C57BL6 mouse assessed as suppression of mu2 phosphorylation in brain lysate at 60 mg/kg, sc measured after 1 hr by Western blot analysis relative to control; type: functional, organism-based
[14] = Drug concentration in plasma of C57BL6 mouse at 30 mg/kg, sc; type: ADME, organism-based; conditions: in vivo
Mus musculus [15] = assay: Antinociceptive activity against formalin-induced nociceptive behavior in C57BL6 mouse assessed as reduction in phase 2 hind paw licking/biting at 30 mg/kg, sc administered 60 mins prior to formalin challenge by formalin test; type: functional, organism-based
[16] = Ratio of drug concentration in brain to plasma of Sprague-Dawley rat model of chronic constriction injury-induced neuropathic pain at 60 mg/kg, sc measured after 240 mins; type: ADME, organism-based; conditions: read-out: BPR
[17] = target: AP2-associated protein kinase 1 (Homo sapiens, UniProt Q2M2I8); assay: Inhibition of recombinant GST-Xa-tagged human AAK1 (30 to 330 residues) using 5-FAM-labelled Alla-KEEQSQITSQVTGQIGWR-NH2 peptide as substrate incubated for 3 hrs in presence of ATP by electrophoretic analysis
[18] = target: AP2-associated protein kinase 1 (Mus musculus) (UniProt Q3UHJ0); assay: In vivo inhibition of AAK1 in C57BL6 mouse assessed as suppression of mu2 phosphorylation in brain lysate at 10 mg/kg, sc measured after 30 mins by Western blot analysis relative to control; type: functional, organism-based
Mus musculus [19] = assay: Antinociceptive activity against formalin-induced nociceptive behavior in C57BL6 mouse assessed as reduction in time spent phase 1 hind paw licking/biting at 30 mg/kg, sc administered 60 mins prior to formalin challenge by formalin test; type: functional; conditions: 1 h
[20] = target: Serine/threonine-protein kinase RIO2 (Homo sapiens) (UniProt Q9BVS4); assay: Inhibition of wild-type human partial length RIOK2 (M1 to D313 residues) expressed in mammalian expression system assessed as residual binding level at 1 uM by Kinomescan method relative to control
[21] = target: Kappa-type opioid receptor (Homo sapiens, UniProt P41145); assay: Inhibition of kappa opioid receptor (unknown origin)
[22] = target: MAP kinase-interacting serine/threonine-protein kinase 1 (Homo sapiens, UniProt Q9BUB5); assay: Inhibition of wild-type human full length MKNK1 (M1 to L424 residues) expressed in mammalian expression system assessed as residual binding level at 1 uM by Kinomescan method relative to control
[23] = target: Cyclin-G-associated kinase (Homo sapiens) (UniProt O14976); assay: Inhibition of wild-type human partial length GAK (G13 to Y338 residues) expressed in bacterial expression system assessed as residual binding level at 1 uM by Kinomescan method relative to control
[24] = Drug concentration in brain of Sprague-Dawley rat model of chronic constriction injury-induced neuropathic pain at 10 mg/kg, sc; type: ADME, organism-based; conditions: in vivo, read-out: Ct
Mus musculus [25] = assay: Antinociceptive activity against formalin-induced nociceptive behavior in C57BL6 mouse assessed as reduction in phase 2 hind paw licking/biting at 10 mg/kg, sc administered 60 mins prior to formalin challenge by formalin test; type: functional, organism-based
[26] = target: Protein kinase C theta type (Homo sapiens, UniProt Q04759); assay: Inhibition of PKCtheta (unknown origin)
[27] = target: Citron Rho-interacting kinase (Homo sapiens, UniProt O14578); assay: Inhibition of CRIK (unknown origin) assessed as residual binding level at 1 uM by Kinomescan method relative to control
[28] = Drug concentration in brain of Sprague-Dawley rat model of chronic constriction injury-induced neuropathic pain at 3 mg/kg, sc; type: ADME, organism-based; conditions: in vivo, read-out: Ct
[29] = target: AP2-associated protein kinase 1 (Mus musculus) (UniProt Q3UHJ0); assay: In vivo inhibition of AAK1 in C57BL6 mouse assessed as suppression of mu2 phosphorylation in brain lysate at 30 mg/kg, sc measured; type: functional, organism-based
[30] = Drug concentration in plasma of C57BL6 mouse at 1 mg/kg, sc; type: ADME, organism-based; conditions: in vivo
Mus musculus [31] = assay: Antinociceptive activity against formalin-induced nociceptive behavior in C57BL6 mouse assessed as reduction in phase 2 hind paw flinching at 10 mg/kg, sc administered 60 mins prior to formalin challenge by formalin test; type: functional, organism-based
[32] = Metabolic stability in human liver microsomes assessed as parent compound remaining at 0.5 uM incubated for 10 mins in presence of NADPH by LC-MS/MS analysis; type: ADME, Microsome; conditions: read-out: Stability
[33] = Aqueous solubility of the compound at pH 7.4; type: physicochemical
[34] = Drug concentration in brain of Sprague-Dawley rat model of chronic constriction injury-induced neuropathic pain at 30 mg/kg, sc; type: ADME, organism-based; conditions: in vivo, read-out: Ct
[35] = target: AP2-associated protein kinase 1 (Mus musculus) (UniProt Q3UHJ0); assay: In vivo inhibition of AAK1 in sc dosed C57BL6 mouse assessed as suppression of mu2 phosphorylation in brain lysate by Western blot analysis; type: functional, organism-based

Chain of AP2-associated protein kinase 1 (Mus musculus) (Q3UHJ0 whole entry, looked up, the tested form may be a part): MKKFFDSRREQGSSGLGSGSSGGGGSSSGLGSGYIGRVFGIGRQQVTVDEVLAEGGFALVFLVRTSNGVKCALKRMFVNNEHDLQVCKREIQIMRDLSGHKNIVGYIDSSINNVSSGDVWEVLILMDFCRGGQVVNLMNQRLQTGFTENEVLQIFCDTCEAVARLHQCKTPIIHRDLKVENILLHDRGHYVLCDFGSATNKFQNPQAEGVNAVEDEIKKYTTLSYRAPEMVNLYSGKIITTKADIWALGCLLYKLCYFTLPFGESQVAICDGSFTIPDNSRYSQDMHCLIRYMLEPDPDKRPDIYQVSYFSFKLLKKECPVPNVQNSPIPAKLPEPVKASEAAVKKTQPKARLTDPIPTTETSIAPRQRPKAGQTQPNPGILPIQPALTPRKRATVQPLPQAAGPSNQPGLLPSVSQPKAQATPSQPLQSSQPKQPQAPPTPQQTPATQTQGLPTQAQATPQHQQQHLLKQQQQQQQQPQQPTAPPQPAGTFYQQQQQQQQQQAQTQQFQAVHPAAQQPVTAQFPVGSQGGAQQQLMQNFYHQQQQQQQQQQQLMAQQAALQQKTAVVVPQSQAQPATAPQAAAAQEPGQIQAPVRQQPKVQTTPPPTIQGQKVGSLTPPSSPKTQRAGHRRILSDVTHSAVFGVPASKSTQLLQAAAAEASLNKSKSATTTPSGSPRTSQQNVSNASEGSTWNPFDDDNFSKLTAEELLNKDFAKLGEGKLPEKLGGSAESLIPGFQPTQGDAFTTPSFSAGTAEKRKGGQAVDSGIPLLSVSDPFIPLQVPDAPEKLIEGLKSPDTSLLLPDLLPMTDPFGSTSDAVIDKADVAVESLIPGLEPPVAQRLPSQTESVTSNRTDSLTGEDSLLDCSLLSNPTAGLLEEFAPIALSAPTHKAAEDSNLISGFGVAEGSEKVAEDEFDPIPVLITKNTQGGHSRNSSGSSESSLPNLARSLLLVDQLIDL
Chain of AP2-associated protein kinase 1 (Q2M2I8 whole entry, the tested form may be a part): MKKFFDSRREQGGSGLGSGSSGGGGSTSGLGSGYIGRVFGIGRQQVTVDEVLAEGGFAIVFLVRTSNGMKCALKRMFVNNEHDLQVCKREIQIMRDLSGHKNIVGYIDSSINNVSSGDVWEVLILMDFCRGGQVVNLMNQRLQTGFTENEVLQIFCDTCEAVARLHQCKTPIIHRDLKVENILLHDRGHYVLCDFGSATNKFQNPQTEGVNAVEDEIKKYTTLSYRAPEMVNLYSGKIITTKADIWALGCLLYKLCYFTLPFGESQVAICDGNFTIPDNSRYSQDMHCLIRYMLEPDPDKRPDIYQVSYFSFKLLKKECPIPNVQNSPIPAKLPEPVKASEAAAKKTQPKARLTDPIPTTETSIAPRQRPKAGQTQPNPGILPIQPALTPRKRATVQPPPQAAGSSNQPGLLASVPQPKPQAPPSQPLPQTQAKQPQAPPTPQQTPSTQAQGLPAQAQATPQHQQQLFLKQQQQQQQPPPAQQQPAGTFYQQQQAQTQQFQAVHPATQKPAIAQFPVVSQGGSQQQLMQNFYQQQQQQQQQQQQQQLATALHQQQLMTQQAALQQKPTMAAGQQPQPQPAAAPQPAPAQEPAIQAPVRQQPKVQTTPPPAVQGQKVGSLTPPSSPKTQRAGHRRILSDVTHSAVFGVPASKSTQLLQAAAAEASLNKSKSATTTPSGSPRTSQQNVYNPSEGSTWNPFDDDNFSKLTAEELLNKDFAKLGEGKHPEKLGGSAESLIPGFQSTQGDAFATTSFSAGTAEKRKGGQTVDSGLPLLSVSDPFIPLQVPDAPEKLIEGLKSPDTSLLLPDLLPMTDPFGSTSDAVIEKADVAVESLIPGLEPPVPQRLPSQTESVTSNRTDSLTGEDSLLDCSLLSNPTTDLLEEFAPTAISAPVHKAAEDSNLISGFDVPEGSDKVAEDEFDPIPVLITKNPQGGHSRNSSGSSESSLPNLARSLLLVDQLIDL
Chain of Serine/threonine-protein kinase haspin (Q8TF76 whole entry, the tested form may be a part): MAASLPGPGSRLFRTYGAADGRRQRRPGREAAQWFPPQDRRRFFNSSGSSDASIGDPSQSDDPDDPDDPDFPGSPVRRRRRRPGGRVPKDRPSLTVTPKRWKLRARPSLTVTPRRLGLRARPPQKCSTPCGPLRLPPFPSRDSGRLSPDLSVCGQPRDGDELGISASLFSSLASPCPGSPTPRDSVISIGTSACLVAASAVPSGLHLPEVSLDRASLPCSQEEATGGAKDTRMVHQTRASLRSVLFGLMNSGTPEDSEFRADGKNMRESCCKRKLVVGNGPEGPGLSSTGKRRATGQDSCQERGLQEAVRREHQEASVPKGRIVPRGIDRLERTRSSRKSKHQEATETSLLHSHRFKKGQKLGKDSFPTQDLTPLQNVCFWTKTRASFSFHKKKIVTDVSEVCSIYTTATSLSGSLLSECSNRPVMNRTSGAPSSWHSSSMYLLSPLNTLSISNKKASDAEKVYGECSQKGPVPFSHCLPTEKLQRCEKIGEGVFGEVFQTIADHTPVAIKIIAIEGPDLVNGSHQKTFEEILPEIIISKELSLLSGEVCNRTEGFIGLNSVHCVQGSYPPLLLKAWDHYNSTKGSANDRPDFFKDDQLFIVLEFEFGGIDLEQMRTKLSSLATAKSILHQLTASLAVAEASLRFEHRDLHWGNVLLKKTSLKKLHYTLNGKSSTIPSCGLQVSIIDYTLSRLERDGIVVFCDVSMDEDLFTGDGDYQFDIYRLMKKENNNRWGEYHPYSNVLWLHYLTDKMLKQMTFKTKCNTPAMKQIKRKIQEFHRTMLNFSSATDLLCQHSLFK
Chain of Protein kinase C theta type (Q04759 whole entry): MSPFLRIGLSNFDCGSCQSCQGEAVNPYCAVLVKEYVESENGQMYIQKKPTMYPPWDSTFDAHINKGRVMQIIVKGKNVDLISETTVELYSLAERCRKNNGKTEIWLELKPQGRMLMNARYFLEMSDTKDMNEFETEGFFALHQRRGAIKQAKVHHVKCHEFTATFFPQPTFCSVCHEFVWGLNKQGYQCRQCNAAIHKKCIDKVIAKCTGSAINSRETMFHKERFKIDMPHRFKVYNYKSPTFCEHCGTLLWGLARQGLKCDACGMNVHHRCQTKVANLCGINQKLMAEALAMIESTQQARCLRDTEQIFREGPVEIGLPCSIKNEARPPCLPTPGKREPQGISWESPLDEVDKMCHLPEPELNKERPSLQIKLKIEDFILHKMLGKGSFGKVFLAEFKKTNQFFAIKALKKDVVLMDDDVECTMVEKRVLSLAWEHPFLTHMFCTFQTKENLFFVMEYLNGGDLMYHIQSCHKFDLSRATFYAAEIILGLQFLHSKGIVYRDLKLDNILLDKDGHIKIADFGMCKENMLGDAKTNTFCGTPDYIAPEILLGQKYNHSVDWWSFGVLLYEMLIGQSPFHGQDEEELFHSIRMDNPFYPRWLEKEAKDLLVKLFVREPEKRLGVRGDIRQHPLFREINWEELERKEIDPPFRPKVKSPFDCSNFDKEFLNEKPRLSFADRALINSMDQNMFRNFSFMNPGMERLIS
Chain of Serine/threonine-protein kinase RIO2 (Homo sapiens) (Q9BVS4 whole entry, looked up, the tested form may be a part): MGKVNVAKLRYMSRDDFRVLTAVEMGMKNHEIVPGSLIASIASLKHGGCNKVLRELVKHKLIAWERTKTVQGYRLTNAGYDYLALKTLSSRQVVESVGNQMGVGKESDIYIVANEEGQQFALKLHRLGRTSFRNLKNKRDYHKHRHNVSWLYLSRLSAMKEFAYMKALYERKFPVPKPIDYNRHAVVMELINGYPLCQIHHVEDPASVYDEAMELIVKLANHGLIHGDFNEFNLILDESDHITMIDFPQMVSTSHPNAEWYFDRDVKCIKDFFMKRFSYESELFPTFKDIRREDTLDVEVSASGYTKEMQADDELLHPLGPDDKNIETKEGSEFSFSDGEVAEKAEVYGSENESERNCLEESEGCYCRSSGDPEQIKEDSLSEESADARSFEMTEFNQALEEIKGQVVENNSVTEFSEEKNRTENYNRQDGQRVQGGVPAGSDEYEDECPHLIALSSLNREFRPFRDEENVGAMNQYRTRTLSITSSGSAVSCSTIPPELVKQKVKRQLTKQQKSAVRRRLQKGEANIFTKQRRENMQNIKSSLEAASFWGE
Chain of Sodium-dependent serotonin transporter (P31645 whole entry): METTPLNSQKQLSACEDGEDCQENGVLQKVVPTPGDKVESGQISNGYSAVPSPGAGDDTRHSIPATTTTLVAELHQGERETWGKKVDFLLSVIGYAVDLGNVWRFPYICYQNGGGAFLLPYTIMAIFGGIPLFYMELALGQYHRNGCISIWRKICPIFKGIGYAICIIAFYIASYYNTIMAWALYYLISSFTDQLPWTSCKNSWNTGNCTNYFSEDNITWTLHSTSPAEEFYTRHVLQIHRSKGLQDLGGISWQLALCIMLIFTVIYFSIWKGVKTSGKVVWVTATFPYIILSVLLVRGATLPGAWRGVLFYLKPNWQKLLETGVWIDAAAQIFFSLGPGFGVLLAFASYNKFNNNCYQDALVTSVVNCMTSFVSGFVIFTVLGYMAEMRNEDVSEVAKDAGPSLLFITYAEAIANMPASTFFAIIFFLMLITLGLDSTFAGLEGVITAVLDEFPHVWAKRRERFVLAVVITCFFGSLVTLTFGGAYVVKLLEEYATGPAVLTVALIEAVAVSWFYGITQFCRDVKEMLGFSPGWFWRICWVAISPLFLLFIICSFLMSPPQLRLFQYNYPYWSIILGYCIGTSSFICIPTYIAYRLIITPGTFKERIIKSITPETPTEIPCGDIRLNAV
Chain of Kappa-type opioid receptor (P41145 whole entry, the tested form may be a part): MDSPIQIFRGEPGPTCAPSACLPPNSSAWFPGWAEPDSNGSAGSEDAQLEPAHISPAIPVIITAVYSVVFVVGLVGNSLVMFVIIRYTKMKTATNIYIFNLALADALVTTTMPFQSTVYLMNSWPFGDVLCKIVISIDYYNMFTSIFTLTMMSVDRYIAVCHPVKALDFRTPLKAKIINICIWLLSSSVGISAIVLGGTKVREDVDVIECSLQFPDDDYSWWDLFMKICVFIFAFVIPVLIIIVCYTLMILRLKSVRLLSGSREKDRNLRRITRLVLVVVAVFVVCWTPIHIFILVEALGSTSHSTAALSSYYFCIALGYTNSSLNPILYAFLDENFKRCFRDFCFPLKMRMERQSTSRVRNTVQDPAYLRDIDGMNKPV

What does the source list for CC(C)C[C@@H](N)C(=O)Nc1ccc(-c2cnco2)c(OC(F)F)c1?
remaining at 10 min, 0.5 µM [1]: 68%; pIC50 [2]: < 4.52; concentration [3]: 52 µM; Cp(f) [4]: 0.02 µM; inhibition [5]: 62%; Activity [6]: 31%; pIC50 [7]: 6.04; concentration at 2 h [8]: 18.5 µM; Activity (Rattus norvegicus): 45%; pIC50 [9]: < 4.52; Kp [10]: 1.04; concentration at 2 h [11]: 17.7 µM; Kp uu at 4 h [12]: 0.7; inhibition [13]: 90%; concentration [14]: 37 µM; Activity (Mus musculus [15]): Active; Kp at 4 h [16]: 0.5; pIC50 [17]: 7.92; inhibition [18]: 56%; Time (Mus musculus [19]): 18 s; Activity [20]: 3.8%; pIC50 [21]: < 4.52; Activity [22]: 8.4%; Activity [23]: 21%; concentration [24]: 7 µM; Activity (Mus musculus [25]): Active; pIC50 [26]: 5.88; Activity [27]: 0.7%; concentration [28]: 0.9 µM; inhibition [29]: Active; concentration [30]: 1.2 µM; Activity (Mus musculus [31]): Active; remaining at 10 min, 0.5 µM [32]: 84%; solubility [33]: 600 µg/mL (≈ 1770 µM); concentration [34]: 33 µM; ED50 [35]: 6 mg/kg
